Key:
Assay in all cases: cells
[1] = tested on: COLO-824; type: functional, cell-based, Homo sapiens; details: Homo sapiens, COLO-824
Description: SANGER: Inhibition of human COLO-824 cell growth in a cell viability assay.

[2] = tested on: COR-L88; type: functional, cell-based, Homo sapiens; details: Homo sapiens, COR-L88;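 further: growth inhibition of COR-L88 cells, read out with a cell viability assay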
Description: SANGER: Inhibition of human COR-L88 cell growth in a cell viability assay.

[3] = tested on: CTB-1; type: functional, cell-based, Homo sapiens; details: Homo sapiens, CTB-1
Description: SANGER: Inhibition of human CTB-1 cell growth in a cell viability assay.

[4] = tested on: D-392MG; type: functional, cell-based, Homo sapiens; details: Homo sapiens, D-392MG
[5] = tested on: DMS-114; type: functional, cell-based, Homo sapiens; details: Homo sapiens, DMS-114
[6] = tested on: EW-11; type: functional, cell-based, Homo sapiens; details: Homo sapiens, EW-11;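 further: growth inhibition of human EW-11 cells, measured with a cell viability assay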
Description: SANGER: Inhibition of human EW-11 cell growth in a cell viability assay.

[7] = tested on: EW-24; type: functional, cell-based, Homo sapiens; details: Homo sapiens, EW-24;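 further: human EW-24 cancer cell line, growth inhibition read out via a cell viability assay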
Description: SANGER: Inhibition of human EW-24 cell growth in a cell viability assay.

[8] = tested on: HCC2157; type: functional, cell-based, Homo sapiens; details: Homo sapiens, HCC2157;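 further: growth inhibition of the cancer cell line, read out as cell viability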
Description: SANGER: Inhibition of human HCC2157 cell growth in a cell viability assay.

[9] = tested on: HOP-62; type: functional, cell-based, Homo sapiens; details: Homo sapiens, HOP-62;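 further: cell growth inhibition determined with a viability assay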
Description: SANGER: Inhibition of human HOP-62 cell growth in a cell viability assay.

[10] = tested on: IST-MES1; type: functional, cell-based, Homo sapiens; details: Homo sapiens, IST-MES1;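 further: growth inhibition of IST-MES1 cells, measured with a cell viability assay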
Description: SANGER: Inhibition of human IST-MES1 cell growth in a cell viability assay.

[11] = tested on: KARPAS-299; type: functional, cell-based, Homo sapiens; details: Homo sapiens, KARPAS-299
Description: SANGER: Inhibition of human KARPAS-299 cell growth in a cell viability assay.

[12] = tested on: KARPAS-45; type: functional, cell-based, Homo sapiens; details: Homo sapiens, KARPAS-45;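 further: inhibition of cell line growth, read out through a viability assay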
Description: SANGER: Inhibition of human KARPAS-45 cell growth in a cell viability assay.

[13] = tested on: KMOE-2; type: functional, cell-based, Homo sapiens; details: Homo sapiens, KMOE-2;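 further: growth inhibition of human KMOE-2 cells, read out with a cell viability assay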
Description: SANGER: Inhibition of human KMOE-2 cell growth in a cell viability assay.

[14] = tested on: LAMA-84; type: functional, cell-based, Homo sapiens; details: Homo sapiens, LAMA-84;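 further: growth inhibition of LAMA-84 cells, read out with a cell viability assay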
Description: SANGER: Inhibition of human LAMA-84 cell growth in a cell viability assay.

[15] = tested on: MEG-01; type: functional, cell-based, Homo sapiens; details: Homo sapiens, MEG-01;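 further: growth inhibition of MEG-01 cells, read out by a cell viability assay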
Description: SANGER: Inhibition of human MEG-01 cell growth in a cell viability assay.

[16] = tested on: MFH-ino; type: functional, cell-based, Homo sapiens; details: Homo sapiens, MFH-ino;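 further: growth inhibition of human MFH-ino cells, read out by a cell viability assay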
Description: SANGER: Inhibition of human MFH-ino cell growth in a cell viability assay.

[17] = tested on: MHH-NB-11; type: functional, cell-based, Homo sapiens; details: Homo sapiens, MHH-NB-11;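 further: growth inhibition of human MHH-NB-11 cells, read out by a cell viability assay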
Description: SANGER: Inhibition of human MHH-NB-11 cell growth in a cell viability assay.

[18] = tested on: MN-60; type: functional, cell-based, Homo sapiens; details: Homo sapiens, MN-60;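 further: growth inhibition of the MN-60 cell line, determined with a cell viability assay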
Description: SANGER: Inhibition of human MN-60 cell growth in a cell viability assay.

[19] = tested on: MPP-89; type: functional, cell-based, Homo sapiens; details: Homo sapiens, MPP-89;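 further: growth inhibition of human MPP-89 cells, read out with a cell viability assay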
Description: SANGER: Inhibition of human MPP-89 cell growth in a cell viability assay.

[20] = tested on: MSTO-211H; type: functional, cell-based, Homo sapiens; details: Homo sapiens, MSTO-211H
Description: SANGER: Inhibition of human MSTO-211H cell growth in a cell viability assay.

[21] = tested on: MZ1-PC; type: functional, cell-based, Homo sapiens; details: Homo sapiens, MZ1-PC;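 further: cell viability assay measuring growth inhibition of human MZ1-PC cells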
Description: SANGER: Inhibition of human MZ1-PC cell growth in a cell viability assay.

[22] = tested on: NCI-H1355; type: functional, cell-based, Homo sapiens; details: Homo sapiens, NCI-H1355;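 further: growth inhibition of human NCI-H1355 cells, read out by a cell viability assay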
Description: SANGER: Inhibition of human NCI-H1355 cell growth in a cell viability assay.

[23] = tested on: NCI-H1395; type: functional, cell-based, Homo sapiens; details: Homo sapiens, NCI-H1395;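 further: cell viability assay read-out quantifying reduced proliferation of human NCI-H1395 cells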
Description: SANGER: Inhibition of human NCI-H1395 cell growth in a cell viability assay.

[24] = tested on: NCI-H2126; type: functional, cell-based, Homo sapiens; details: Homo sapiens, NCI-H2126;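 further: growth inhibition of the cancer cell line, determined with a cell viability readout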
Description: SANGER: Inhibition of human NCI-H2126 cell growth in a cell viability assay.

[25] = tested on: NCI-H747; type: functional, cell-based, Homo sapiens; details: Homo sapiens, NCI-H747;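 further: growth inhibition of human NCI-H747 cells, read out by a cell viability assay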
Description: SANGER: Inhibition of human NCI-H747 cell growth in a cell viability assay.

[26] = tested on: NCI-N87; type: functional, cell-based, Homo sapiens; details: Homo sapiens, NCI-N87;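 further: growth inhibition of human NCI-N87 cells, read out with a cell viability assay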
Description: SANGER: Inhibition of human NCI-N87 cell growth in a cell viability assay.

[27] = tested on: NH-12; type: functional, cell-based, Homo sapiens; details: Homo sapiens, NH-12;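 further: growth inhibition of NH-12 cells, read out with a cell viability assay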
Description: SANGER: Inhibition of human NH-12 cell growth in a cell viability assay.

[28] = tested on: NOMO-1; type: functional, cell-based, Homo sapiens; details: Homo sapiens, NOMO-1;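 further: growth inhibition of human NOMO-1 cells measured by a cell viability assay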
Description: SANGER: Inhibition of human NOMO-1 cell growth in a cell viability assay.

[29] = tested on: OS-RC-2; type: functional, cell-based, Homo sapiens; details: Homo sapiens, OS-RC-2;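 further: growth inhibition of human OS-RC-2 cells, measured by a cell viability assay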
Description: SANGER: Inhibition of human OS-RC-2 cell growth in a cell viability assay.

[30] = tested on: P30-OHK; type: functional, cell-based, Homo sapiens; details: Homo sapiens, P30-OHK;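 further: growth inhibition of the P30-OHK cell line, read out with a cell viability assay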
Description: SANGER: Inhibition of human P30-OHK cell growth in a cell viability assay.

[31] = tested on: QIMR-WIL; type: functional, cell-based, Homo sapiens; details: Homo sapiens, QIMR-WIL;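 further: growth inhibition of QIMR-WIL cells, read out with a cell viability assay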
Description: SANGER: Inhibition of human QIMR-WIL cell growth in a cell viability assay.

[32] = tested on: RS4-11; type: functional, cell-based, Homo sapiens; details: Homo sapiens, RS4-11;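 further: growth inhibition of RS4-11 cells, read out by a cell viability assay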
Description: SANGER: Inhibition of human RS4-11 cell growth in a cell viability assay.

[33] = tested on: SBC-1; type: functional, cell-based, Homo sapiens; details: Homo sapiens, SBC-1;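 further: cell viability assay measuring growth inhibition of the SBC-1 cell line, IC50 being the concentration that halves growth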
Description: SANGER: Inhibition of human SBC-1 cell growth in a cell viability assay.

[34] = tested on: SK-MEL-1; type: functional, cell-based, Homo sapiens; details: Homo sapiens, SK-MEL-1;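 further: growth inhibition of human SK-MEL-1 cells, read out by a cell viability assay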
Description: SANGER: Inhibition of human SK-MEL-1 cell growth in a cell viability assay.

[35] = tested on: SK-N-FI; type: functional, cell-based, Homo sapiens; details: Homo sapiens, SK-N-FI;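 further: cell viability assay measuring growth inhibition of human SK-N-FI cells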
Description: SANGER: Inhibition of human SK-N-FI cell growth in a cell viability assay.

[36] = tested on: SK-PN-DW; type: functional, cell-based, Homo sapiens; details: Homo sapiens, SK-PN-DW;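 further: growth inhibition measured with a viability assay on these cells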
Description: SANGER: Inhibition of human SK-PN-DW cell growth in a cell viability assay.

[37] = tested on: 8-MG-BA; type: functional, cell-based, Homo sapiens; details: Homo sapiens, 8-MG-BA;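 further: growth inhibition of 8-MG-BA cells, read out with a cell viability assay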
Description: SANGER: Inhibition of human 8-MG-BA cell growth in a cell viability assay.

[38] = tested on: A704; type: functional, cell-based, Homo sapiens; details: Homo sapiens, A704;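 further: growth inhibition of human A704 cells, read out with a cell viability assay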
Description: SANGER: Inhibition of human A704 cell growth in a cell viability assay.

[39] = tested on: BB49-HNC; type: functional, cell-based, Homo sapiens; details: Homo sapiens, BB49-HNC;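 further: cell viability assay read-out, reported as inhibition of BB49-HNC cell growth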
Description: SANGER: Inhibition of human BB49-HNC cell growth in a cell viability assay.

[40] = tested on: BB65-RCC; type: functional, cell-based, Homo sapiens; details: Homo sapiens, BB65-RCC;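 further: growth inhibition of the cell line, measured with a cell viability assay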
Description: SANGER: Inhibition of human BB65-RCC cell growth in a cell viability assay.

[41] = tested on: BE-13; type: functional, cell-based, Homo sapiens; details: Homo sapiens, BE-13;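 further: growth inhibition of human BE-13 cells, measured with a cell viability assay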
Description: SANGER: Inhibition of human BE-13 cell growth in a cell viability assay.

[42] = tested on: BT-474; type: functional, cell-based, Homo sapiens; details: Homo sapiens, BT-474
Description: SANGER: Inhibition of human BT-474 cell growth in a cell viability assay.

[43] = tested on: C2BBe1; type: functional, cell-based, Homo sapiens; details: Homo sapiens, C2BBe1;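 further: growth inhibition of C2BBe1 cells, read out through a viability assay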
Description: SANGER: Inhibition of human C2BBe1 cell growth in a cell viability assay.

[44] = tested on: TE-12; type: functional, cell-based, Homo sapiens; details: Homo sapiens, TE-12;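 further: growth inhibition of TE-12 cells, read out by a cell viability assay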
Description: SANGER: Inhibition of human TE-12 cell growth in a cell viability assay.

[45] = tested on: TE-5; type: functional, cell-based, Homo sapiens; details: Homo sapiens, TE-5;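 further: inhibition of cell growth, read out by a cell viability assay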
Description: SANGER: Inhibition of human TE-5 cell growth in a cell viability assay.

[46] = tested on: U-87 MG; type: functional, cell-based, Homo sapiens, U-87MG ATCC; details: Homo sapiens, U-87 MG;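 further: growth inhibition of the cells measured with a viability assay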
Description: SANGER: Inhibition of human U-87-MG cell growth in a cell viability assay.

[47] = tested on: VA-ES-BJ; type: functional, cell-based, Homo sapiens; details: Homo sapiens, VA-ES-BJ;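 further: growth inhibition of the VA-ES-BJ cell line, read out by a cell viability assay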
Description: SANGER: Inhibition of human VA-ES-BJ cell growth in a cell viability assay.

[48] = tested on: no-10; type: functional, cell-based, Homo sapiens; details: Homo sapiens;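 further: growth inhibition of no-10 cells, read out with a cell viability assay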
Description: SANGER: Inhibition of human no-10 cell growth in a cell viability assay.

Cc1cc([N+](=O)[O-])ccc1NS(=O)(=O)c1cc(Cl)ccc1Cl was tested, and the IC50 [1] was 18.1 µM, the IC50 [2] was greater than 32 µM and the IC50 [3] was 30.5 µM. It also gave an IC50 [4] greater than 32 µM, an IC50 [5] greater than 32 µM and an IC50 [6] greater than 32 µM. For the same compound, the IC50 [7] was greater than 32 µM, the IC50 [8] was 8.76 µM and the IC50 [9] was 5.08 µM. For the same compound, the IC50 [10] was 4.85 µM, the IC50 [11] was greater than 32 µM and the IC50 [12] was 4.51 µM. The IC50 [13] was 3.84 µM, the IC50 [14] was 6.09 µM and the IC50 [15] was greater than 32 µM. It also gave an IC50 [16] of 0.506 µM, an IC50 [17] of 20.7 µM and an IC50 [18] of 27 µM. The IC50 [19] was 20.1 µM, the IC50 [20] was greater than 32 µM and the IC50 [21] was 6.31 µM. It also gave an IC50 [22] of 2.93 µM, an IC50 [23] greater than 32 µM and an IC50 [24] of 24.8 µM. It also gave an IC50 [25] of 7.48 µM, an IC50 [26] of 7.25 µM and an IC50 [27] of 14.6 µM. The IC50 [28] was 6.21 µM, the IC50 [29] was 6.75 µM and the IC50 [30] was greater than 32 µM. It also gave an IC50 [31] of 6.82 µM, an IC50 [32] of 13.2 µM and an IC50 [33] greater than 32 µM. The IC50 [34] was greater than 32 µM, the IC50 [35] was 16.7 µM and the IC50 [36] was 11.6 µM. For the same compound, the IC50 [37] was 3.7 µM, the IC50 [38] was 2.58 µM and the IC50 [39] was greater than 32 µM. It also gave an IC50 [40] of 6.37 µM, an IC50 [41] of 7.53 µM and an IC50 [42] of 4.42 µM. It also gave an IC50 [43] of 25.4 µM, an IC50 [44] of 2.94 µM and an IC50 [45] of 6.73 µM. The IC50 [46] was 22.4 µM, the IC50 [47] was 1.23 µM and the IC50 [48] was greater than 32 µM.
Oc1ccc2ccccc2c1SSc1c(O)ccc2ccccc12 showed an IC50 [1] greater than 32 µM, an IC50 [2] greater than 32 µM and an IC50 [3] of 12.7 µM. For the same compound, the IC50 [4] was greater than 32 µM, the IC50 [5] was greater than 32 µM and the IC50 [6] was greater than 32 µM. It also gave an IC50 [7] greater than 32 µM, an IC50 [8] greater than 32 µM and an IC50 [9] greater than 32 µM. It also gave an IC50 [10] greater than 32 µM, an IC50 [11] greater than 32 µM and an IC50 [12] of 12.8 µM. The IC50 [13] was greater than 32 µM, the IC50 [14] was greater than 32 µM and the IC50 [15] was greater than 32 µM. It also gave an IC50 [16] greater than 32 µM, an IC50 [17] greater than 32 µM and an IC50 [18] greater than 32 µM. The IC50 [19] was greater than 32 µM, the IC50 [20] was greater than 32 µM and the IC50 [21] was greater than 32 µM. The IC50 [22] was greater than 32 µM, the IC50 [23] was greater than 32 µM and the IC50 [24] was greater than 32 µM. It also gave an IC50 [25] greater than 32 µM, an IC50 [26] greater than 32 µM and an IC50 [27] of 5.12 µM. For the same compound, the IC50 [28] was greater than 32 µM, the IC50 [29] was greater than 32 µM and the IC50 [30] was 9.87 µM. For the same compound, the IC50 [31] was 2.91 µM, the IC50 [32] was 23.2 µM and the IC50 [33] was greater than 32 µM. For the same compound, the IC50 [34] was greater than 32 µM, the IC50 [35] was greater than 32 µM and the IC50 [36] was 27.9 µM. It also gave an IC50 [37] greater than 32 µM, an IC50 [38] greater than 32 µM and an IC50 [39] greater than 32 µM. The IC50 [40] was greater than 32 µM, the IC50 [41] was greater than 32 µM and the IC50 [42] was 7.41 µM. The IC50 [43] was greater than 32 µM, the IC50 [44] was greater than 32 µM and the IC50 [45] was greater than 32 µM. For the same compound, the IC50 [46] was greater than 32 µM, the IC50 [47] was greater than 32 µM and the IC50 [48] was greater than 32 µM.
N#Cc1c(O)c2c(-c3ccc(-c4ccccc4O)cc3)csc2[nH]c1=O showed an IC50 [1] of 0.328 µM, an IC50 [2] of 0.725 µM and an IC50 [3] greater than 1.02 µM. For the same compound, the IC50 [4] was greater than 1.02 µM, the IC50 [5] was greater than 1.02 µM and the IC50 [6] was greater than 1.02 µM. The IC50 [7] was greater than 1.02 µM, the IC50 [8] was 0.105 µM and the IC50 [9] was greater than 1.02 µM. It also gave an IC50 [10] greater than 1.02 µM, an IC50 [11] of 0.948 µM and an IC50 [12] of 0.17 µM. For the same compound, the IC50 [13] was 0.397 µM, the IC50 [14] was 0.308 µM and the IC50 [15] was 0.269 µM. The IC50 [16] was greater than 1.02 µM, the IC50 [17] was 0.323 µM and the IC50 [18] was 0.346 µM. It also gave an IC50 [19] greater than 1.02 µM, an IC50 [20] greater than 1.02 µM and an IC50 [21] greater than 1.02 µM. The IC50 [22] was greater than 1.02 µM, the IC50 [23] was greater than 1.02 µM and the IC50 [24] was greater than 1.02 µM. For the same compound, the IC50 [25] was greater than 1.02 µM, the IC50 [26] was greater than 1.02 µM and the IC50 [27] was 0.0369 µM. It also gave an IC50 [28] of 0.263 µM, an IC50 [29] greater than 1.02 µM and an IC50 [30] of 0.993 µM. The IC50 [31] was 0.0364 µM, the IC50 [32] was 0.0857 µM and the IC50 [33] was greater than 1.02 µM. It also gave an IC50 [34] greater than 1.02 µM, an IC50 [35] greater than 1.02 µM and an IC50 [36] greater than 1.02 µM. The IC50 [37] was greater than 1.02 µM, the IC50 [38] was greater than 1.02 µM and the IC50 [39] was greater than 1.02 µM. For the same compound, the IC50 [40] was greater than 1.02 µM, the IC50 [41] was greater than 1.02 µM and the IC50 [42] was 0.151 µM. It also gave an IC50 [43] greater than 1.02 µM, an IC50 [44] greater than 1.02 µM and an IC50 [45] greater than 1.02 µM. For the same compound, the IC50 [46] was 0.333 µM, the IC50 [47] was greater than 1.02 µM and the IC50 [48] was greater than 1.02 µM.

Source: ChEMBL document CHEMBL1201861, “Genomics of Drug Sensitity in Cancer screening data, Wellcome Trust Sanger Institute”
